From patent US20120157529A1 (priority 2009, published 2012)

B1: tcp promoter 40 bp toxbox probe (dsDNA)
DNA 1: GTGTTATTAAAAAAATAAAAAAACACAGCAAAAAATGACA
DNA 2: TGTCATTTTTTGCTGTGTTTTTTTATTTTTTTAATAACAC

Columns and labels:
tcp and ctx operons = assay: β-galactosidase assay of tcp-lacZ and ctx-lacZ fusions in V. cholerae cultures with added fatty acids; assay type: cell-based, Vibrio cholerae; conditions: fatty acid at 0.02% in methanol; LB medium pH 6.5, 30° C., 18 hours
Description: Expression is based upon β-galactosidase activity of tcpA-lacZ and ctx-lacZ fusion constructs, respectively. Cells were grown in LB medium pH 6.5 at 30° C. for 18 hours +/− the indicated fatty acids at 0.02% dissolved in methanol. C, control with methanol; PA, sodium palmitate; POA, palmitoleic acid; OA, oleic acid.
β-galactosidase Assays. β-galactosidase activity was determined by conventional methods (Miller (1972) Experiments in Molecular Genetics (Cold Spring Harbor Laboratory Press, Cold Spring Harbor, N.Y.). The tcp-lacZ and ctx-lacZ strains MBN135 (Nye, et al. (2000) J. Bacteriol. 182:4295-4303) and KSK218 (Skorupski & Taylor (1997) Proc. Natl. Acad. Sci. USA 94:265-270) were grown for 18 hours in LB media pH 6.5 at 30° C. Either methanol or the indicated fatty acids were added to 0.02%.
To address whether cis-palmitoleate was capable of influencing the activity of ToxT, different UFAs and SFAs were added to cultures of V. cholerae strains carrying transcriptional fusions to the tcp and ctx operons. […].

ToxT [1] = target: T1, ToxT (Vibrio cholerae serotype O1, UniProt A5F384); assay: Electrophoretic mobility shift assay of ToxT binding to tcp promoter DNA; assay type: biochemical; conditions: fatty acid 0.002%; 30 minutes at 30° C.
T1 construct: Full-length ToxT was cloned from Vibrio cholerae 0395; made in house; host or cells: E. coli BL21-CODONPLUS (DE3)-RIL
T1 sequence (A5F384 1-276): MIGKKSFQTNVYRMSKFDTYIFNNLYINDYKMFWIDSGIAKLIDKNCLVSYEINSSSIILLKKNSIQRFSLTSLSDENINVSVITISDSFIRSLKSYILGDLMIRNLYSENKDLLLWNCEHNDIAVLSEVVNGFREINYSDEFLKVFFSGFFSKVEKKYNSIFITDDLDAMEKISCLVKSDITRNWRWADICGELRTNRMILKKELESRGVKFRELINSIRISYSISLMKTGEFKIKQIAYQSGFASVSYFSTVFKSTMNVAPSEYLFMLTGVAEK
Description: Electrophoretic Mobility Shift Assays. Single-stranded, forty base-pair complimentary oligos (Operon) from the tcp promoter (5′-GTGTTATTAAAAAAATAAAAAAACACAGCAAAAAATGACA-3′; SEQ ID NO:1) were end labeled with a biotin-conjugated dUTP using the Biotin 3′ End Labeling Kit (Pierce) following the manufacturer's instructions and then annealed to form double-stranded fragments. EMSA's were carried out using the LightShift Chemiluminescent EMSA Kit (Pierce) following the manufacturer's instructions. Briefly, 2.5 pmole, 4 pmole, 5 pmole of ToxT were mixed with 50 fmole of double-stranded labeled DNA in a binding buffer (10 mM Tris pH 7.5, 1 mM EDTA, 100 mM KCl, 5 mM MgCl2, 1 mM DTT, 0.3 mg mL^−1 BSA, 150 μg herring sperm DNA, and 10% glycerol). Fatty acids were dissolved in methanol and added to a final concentration of 0.002% using the same volume of methanol as a control. To show specificity, a 70-fold molar excess of unlabeled double-stranded tcp fragment and a 70-fold molar excess of unlabeled nonspecific DNA (42 base pairs) were added as controls. Reactions were then incubated for 30 minutes at 30° C. and loaded on a 1×TBE 6% polyacrylamide gel at 4° C. then transferred onto a positively charged membrane (HYBOND XL, GE Healthcare) and detected by chemiluminescence. An EMSA experiment was conducted using the control reagents from the LightShift Chemiluminescent EMSA Kit following the manufacturer's instructions while adding methanol and 0.02% fatty acids.

ToxT-activated genes = conditions: cited from earlier work
ToxT [2] = target: T1, ToxT; conditions: cited from earlier work
V. cholerae strain 0395 = assay: Infant mouse cholera model, survival at 48 hours post-infection; assay type: in vivo; conditions: for protection of mice from cholera / survival versus control and methanol groups: infant mouse, 48 hours post-infection, Tukey HSD p<0.05
Description: FIG. 3 is a means diamond plot. Mouse lethality data was converted to survival rates based on percentage of 48 hours at time of death. A one-way ANOVA was used to test for survival rate differences among the five groups in the challenge assay. […] Arcsine transformations were performed on the data to remove possible bias caused by percentages but there was no difference between transformed and non-transformed data. A means diamond illustrates a sample mean and 95% confidence interval. The line across each diamond represents the group mean. The vertical span of each diamond represents the 95% confidence interval for each group. Overlap marks are drawn above and below the group mean. […] The horizontal extent of each group along the x-axis (the horizontal size of the diamond) is proportional to the sample size of each level of the x variable. It follows that the narrower diamonds are usually the taller ones because fewer data points yield a less precise estimate of the group mean. Control is bacteria in broth. MeOH is methanol and MeOHC received a second dose of methanol 1 hour after infection. PA is 0.2% palmiteoleic acid dissolved in methanol and PAC includes a second dose of 0.2% palmiteoleic acid administered 1 hour after infection.
Palmiteoleic acid (0.2%) dissolved in methanol was co-administered orally with approximately a 10 lethal dose 50 (LD50) of V. cholerae strain 0395. In some cases an additional administration of palmiteoleic acid was given to the mice one hour after infection. The ability of palmiteoleic acid to prevent death from cholera was assessed at 48 hours post-infection. The results are presented in FIG. 3 as a means diamond plot.

ToxT [3] = target: ToxT (Vibrio cholerae O395, UniProt A5F384 A5F384:1-276); assay: EMSA; bound at 100-fold molar excess of protein (5 pmol ToxT to 50 fmol DNA), not at 50-fold; competed by 70-fold unlabeled probe; 5 mM MgCl2, 100 mM KCl, pH 7.5, 30; conditions: tags: full-length; expressed as intein/CBD fusion (pTXB1, NEB IMPACT-CN), tag cleaved with DTT; label: 3' biotin-dUTP

Molecule | reduction of expression of tcp and ctx operons (β-galactosidase activity of lacZ fusions) (tcp and ctx operons) | effect on ToxT binding to DNA (40 base-pair tcp promoter probe) (ToxT [1]) | inhibition of expression of ToxT-activated genes (ToxT-activated genes) | further results
CCCCCCCC/C=C\CCCCCCCC(=O)O [oleic acid] | 10-15 fold | completely prevented ToxT from binding to DNA | strongly inhibit | –
CCCCCCCCCCCCCCCCCC(=O)O [stearic acid] | – | – | not shown to inhibit | –
CCCCC/C=C\C/C=C\CCCCCCCC(=O)O [linoleic acid] | – | – | strongly inhibit | –
CCCCCCCCCCCCCCCC(=O)O [palmitic acid] | two-fold | no effect on ToxT binding | not shown to inhibit | –
O=C(O)CCCN1C(=O)c2cccc3cccc(c23)C1=O [virstatin, 4-[N-(1,8-naphthalimide)]-n-butyric acid] | – | – | – | effect on ToxT dimerization and activation of tcp and ctx promoter transcription (ToxT [2]): interferes with ToxT's ability to dimerize and activate transcription of the tcp and ctx promoters
CCCCCC/C=C\CCCCCCCC(=O)O [palmitoleic acid, (Z)-9-hexadecenoic acid] | 6-8 fold | completely prevented ToxT from binding to DNA | – | mean survival rate (percentage of 48 hours at time of death) (V. cholerae strain 0395; 0.2% co-administered orally plus second dose 1 hour after infection, group PAC {5}): 89.389%; mean survival rate (percentage of 48 hours at time of death) (V. cholerae strain 0395; 0.2% in methanol co-administered orally with about 10 LD50 V. cholerae 0395, group PA {4}): 80.093%; protection of mice from cholera / survival versus control and methanol groups (V. cholerae strain 0395; listed as PA): significantly higher survival rates; protection of mice from cholera / survival versus control and methanol groups (V. cholerae strain 0395; listed as palmiteoleic acid): extremely effective at protecting the mice from cholera
CCCCC/C=C\C/C=C\C/C=C\C/C=C\CCCC(=O)O [arachidonic acid] | – | – | strongly inhibit | –
B1 | – | – | – | binding result (ToxT [3]): binds
